From US10538545B2 (priority 2017, dated 2020)

Columns and labels:
[1] = tested on: AB (wild type) zebrafish embryos; details: in vivo
metmyoglobin (metMb) = biological target: T1, metmyoglobin (metMb) (Equus caballus, UniProt P68082); test: Reaction of DNIC with metmyoglobin (nitroxyl transfer, UV-vis); type: biochemical; details: 10 μM DNIC + 10 μM metMb, 25 mM phosphate buffer pH 7.4
T1 construct: purchased TCl
Method: A typical procedure for nitroxyl-transfer reaction of DNIC-2 and metmyoglobin was described below using DNIC-2a as an example, whereas reaction of DNIC-2b/DNIC-2d and metMb follows the same procedure. 10 μM of metMb in 3.3 mL of 25 mM phosphate buffer (pH 7.4) was loaded in a 4-mL quartz cuvette and sealed with rubber septum under anaerobic N2 atmosphere. 10 μM of DNIC-2a (13.0 μL of 2.5 mM stock solution of DNIC-2a in THF) was added into this aqueous solution, which is thermostated at 25° C. UV-vis spectra of this reaction solution were measured after this reaction solution was incubated for 10 minutes.
A typical procedure for reaction of DNIC-1 and metmyoglobin was described below. To a 4-mL quartz cuvette containing 10 μM of metMb in 3.3 mL of 25 mM phosphate buffer (pH 7.4), 10 μM of DNIC-1, derived from 13.0 μL of 2.5 mM stock solution of DNIC-1 in THF was added via gas-tight syringe at room temperature. The reaction solution was incubated at ambient temperature for 8 hours. No change of UV-vis spectra for this reaction solution was observed.
In example 1, the reaction of a variety of DNICs with metmyoglobin was investigated so as to verify the universal role of bridging ligands, thiolate vs. pyrazolate, on dictating the NO^−-transfer reactivity.

[2] = tested on: soluble guanylate cyclase (sGC); design: species or system C. elegans; details: in vivo
[3] = tested on: Tg (kdr:EGFP) zebrafish embryos; details: in vivo
WT-AB zebrafish embryos = details: in vivo

T1 sequence (P68082 2-154 limits assumed): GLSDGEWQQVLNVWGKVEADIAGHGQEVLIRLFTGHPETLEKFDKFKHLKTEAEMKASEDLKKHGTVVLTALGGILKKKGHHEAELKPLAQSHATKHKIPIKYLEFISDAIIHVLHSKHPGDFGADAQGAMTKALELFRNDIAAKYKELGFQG

Row | Compound | Cardiac Output [1] [nL/min] | Fractional Shortening [1] | Heart Rate [1] [bpm] | Short Axis Diameter ED(Dd) [1] [μm] | Short Axis Diameter ES(Ds) [1] [μm] | Ventricular Volume ED [1] [nL] | Ventricular Volume ED-ES [1] [nL] | Ventricular Volume ES [1] [nL] | nitroxyl-transfer reactivity toward metmyoglobin (formation of MbNO, shift of UV-vis bands) (metmyoglobin (metMb)) | increase of the GFP fluorescence signal in CX3553 worms [2] | Vessel Diameter (dorsal aorta diameter) [3] [μm] | change of diameter of heart short-axis at end systole (ES) [1] | enhancement of cardiac output [1] | enhancement of fractional shortening [1] | Survival rate of zebrafish, Day 3 (WT-AB zebrafish embryos) [%] | Survival rate of zebrafish, Day 4 (WT-AB zebrafish embryos) [%] | Survival rate of zebrafish, Day 5 (WT-AB zebrafish embryos) [%] | acute toxicity on zebrafish embryo (WT-AB zebrafish embryos)
1 | CNC[C@H](O)c1ccc(O)c(O)c1 [Epinephrine, epinephrine, reference compound] | 37.4 ± 6.1 | 0.25 ± 0.04 | 144 ± 8 | 80.9 ± 1.4 | 61.0 ± 2.5 | 0.46 ± 0.05 | 0.26 ± 0.05 | 0.20 ± 0.03 |  |  |  |  |  |  |  |  |  | 
2 | [(NO)2Fe(μ-^NH2Pyr)2Fe(NO)2] [DNIC-2a] | 48.4 ± 4.5 | 0.28 ± 0.02 | 145 ± 7 | 83.3 ± 2.5 | 59.6 ± 1.7 | 0.55 ± 0.03 | 0.34 ± 0.02 | 0.21 ± 0.02 | nitroxyl transfer from DNIC-2a to metmyoglobin | about 5.7 fold | 25.6±0.6 | significant decrease | about 2 fold | about 2 fold | 100 ± 0.0 | 99.6 ± 0.7 | 98.4 ± 2.7 | no acute toxicity
